Where two headings read alike, the source gives them in different places.
What was measured:
[1] = system: LPS in E. coli culture supernatant (E. coli NIHJ JC-2 strain); assay: Inhibitory effect on LPS in E. coli culture supernatant; type: cell-based; conditions: relative ratio to the inhibitory ratio of the compound of Example 1 as 1.0; compound 100 μM, 24 hr
Experimental: One platinum loop of E. coli NIHJ JC-2 strain was inoculated into a test tube containing heart infusion broth (HIB, 5 mL) and cultured for about 24 hr. The bacterial culture broth was washed three times by centrifugation (3000 rpm, 15 min, 20° C., TOMY Seiko, RL-131) using 10 mL of fresh HIB medium for one cycle of washing. The washed bacteria were prepared to an about 10^7 colony forming unit (CFU)/mL with a fresh HIB medium, and 0.2 mL of the prepared bacterial suspension was inoculated into an Erlenmeyer flask containing a fresh HIB medium (18.8 mL) (i.e., to final bacterial concentration of about 10^5 CFU/mL). A solution (1 mL) of each compound prepared to a concentration of 2 mM (final concentration of compound 100 μM) was added to the culture broth containing the bacteria. Using a shaker (RGR-1 type, manufactured by IWASHIYA, Ltd.), shake culture was conducted at 37° C., and 2 mL of culture broth after 24 hr was sampled. The sampled culture broth was filtered (DISMIC, 0.45 μm, Advantech Toyo) and diluted 10^5-fold with sterile distilled water. The resulting suspension (200 μL) was added to a limulus reagent (LAL ES, Wako Pure Chemical Industries) and LPS concentration was measured using Toxinometer MT-285 (Wako Pure Chemical Industries) preheated to 37° C.
The LPS inhibitory ratio of the compound was calculated as a ratio of the LPS concentration of the compound addition group relative to the LPS concentration of the compound non-addition group. […] The inhibitory ratio of each compound is shown in the following in Table 1 as a relative ratio to the inhibitory ratio of the compound of Example 1 as 1.0.

[2] = system: LPS in rat peritonitis (CLP; cecal ligation and puncture) model; assay: Inhibitory effect on LPS that increases in rat peritonitis (CLP) model; type: in vivo; conditions: iv, continuous tail vein infusion 2.5 mg/kg/hr
Experimental: Rat peritonitis (CLP; cecal ligation and puncture) model was prepared according to the method of Wichterman et al. (J. Surg. Res. 29, 189-201 <1980>). That is, a rat fasted overnight was anesthetized with ether, and a midline laparotomy was performed and the cecum was exposed. The cecum was ligated with a 3-0 silk thread at its base and perforated two times with an 18 G injection needle. The cecum was gently squeezed to extrude feces, which were spread around the abdomen, and the sectioned part was sutured. The animal was fixed in a Borrmann cage, and physiological saline or drug solution ([…]) was continuously given from the tail vein at an administration rate of 2.5 mg/kg/hr with an infusion pump (22 M, Harvard, 5 mL/kg/hr as a dose).
After 6 hr of the CLP treatment, the animal was sacrificed with carbonic acid gas. The abdominal cavity was washed by injecting phosphate buffered saline (PBS; 37° C., 10 mL) and the abdominal cavity washing containing ascites (PLF; peritoneal lavage fluid) was recovered. The recovery weight of the obtained PLF was measured, and PLF was centrifuged (1500 rpm for 5 min, 4° C.) to recover supernatant. The blood taken from the heart was centrifuged (3000 rpm for 10 min, 4° C.) using a serum separation tube, and the serum was recovered. The concentration of LPS in the abdominal cavity and serum was measured using Toxinometer MT-285 (Waco Pure Chemical Industries) preheated to 37° C., after diluting the supernatant and serum of the recovered PLF 10^5-fold and 10^2-fold, respectively, with sterile distilled water, and adding 200 μL thereof to a limulus reagent (LAL ES, Waco Pure Chemical Industries). The amount of LPS per abdominal cavity was calculated from amount of recovered abdominal cavity washing (PLF)×LPS concentration of PLF.
The LPS inhibitory ratio of the compound was calculated as the ratio of LPS concentration of the compound administration group to LPS concentration of the physiological saline administration group.

[3] = peritoneal lavage fluid 6 hr after CLP, read-out: LPS inhibitory ratio (%) in abdominal cavity
[4] = serum 6 hr after CLP, read-out: LPS inhibitory ratio (%) in blood

Row | SMILES | inhibitory effect of compound on LPS in E. coli culture supernatant, relative ratio [1] | inhibition in vivo at 2.5 mg/kg/h [2, 3] | inhibition in vivo at 2.5 mg/kg/h [2, 4]
1 | CC(C)C[C@@H](C(=O)N[C@@H](Cc1ccccc1)C(=O)NCS(=O)(=O)[O-])C(CN1C(=O)c2ccccc2C1=O)C(=O)NO.[Na+] (single isomer, unassigned) [Example 15, 5-methyl-3(R)-[2-phenyl-1(S)-(sulfomethylcarbamoyl)ethylcarbamoyl]-2(R or S)-phthalimidomethylhexanohydroxamic acid sodium salt] | 1.05 | 70.3% | 68.2%
2 | CC(C)C[C@@H](C(=O)N[C@@H](Cc1ccccc1)C(=O)NCCS(=O)(=O)[O-])C(CN1C(=O)c2ccccc2C1=O)C(=O)NO.[Na+] (single isomer, unassigned) [Example 17, 5-methyl-3(R)-[2-phenyl-1(S)-(2-sulfoethylcarbamoyl)ethylcarbamoyl]-2(R or S)-phthalimidomethylhexanohydroxamic acid sodium salt] | 0.78 | 14.4% | 59.1%
3 | CC(C)C[C@@H](C(=O)N[C@@H](Cc1ccccc1)C(=O)NCCCS(=O)(=O)[O-])C(CN1C(=O)c2ccccc2C1=O)C(=O)NO.[Na+] (single isomer, unassigned) [Example 19, 5-methyl-3(R)-[2-phenyl-1(S)-(3-sulfopropylcarbamoyl)ethylcarbamoyl]-2(R or S)-phthalimidomethylhexanohydroxamic acid sodium salt] | 0.67 | 89.6% | 67.8%
4 | CC(C)C[C@@H](C(=O)N[C@@H](Cc1ccccc1)C(=O)NCCCCS(=O)(=O)[O-])C(CN1C(=O)c2ccccc2C1=O)C(=O)NO.[Na+] (single isomer, unassigned) [Example 21, 5-methyl-3(R)-[2-phenyl-1(S)-(4-sulfobutylcarbamoyl)ethylcarbamoyl]-2(R or S)-phthalimidomethylhexanohydroxamic acid sodium salt] | 0.79 | 57.1% | 55.9%
5 | CC(C)C[C@@H](C(=O)N[C@@H](Cc1ccccc1)C(=O)NCCCCCS(=O)(=O)[O-])C(CN1C(=O)c2ccccc2C1=O)C(=O)NO.[Na+] (single isomer, unassigned) [Example 22, 5-methyl-3(R)-[2-phenyl-1(S)-(5-sulfopentylcarbamoyl)ethylcarbamoyl]-2(R or S)-phthalimidomethylhexanohydroxamic acid sodium salt] | 0.68 | 80.7% | 21.6%

Reference: patent US6989401B2, “Sulfonic acid derivatives of hydroxamic acids and their use as medicinal products” (Mitsubishi Pharma Corporation, priority 2000, dated 2006)
